According to PubChem BioAssay AID463229 (Broad Institute, 2010):
The source made the active and inactive calls.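 How the source made its calls: active means compounds raising the signal whose fitted half-maximal concentration is at or below their top tested dose (cut at about 25 µM in these data); inconclusive means flat fit at 30 to 70% activity, or a poor fit; inactive means the rest.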

System: INS-1E rat beta cells, no cytokines, CellTiter-Glo ATP, 48 h
Assay: cytokine-free beta-cell viability effect – INS-1E rat cells, ATP luminescence, cherry pick, counter-screen for beta-cell apoptosis protection project, dose response (AID 463229)

| SMILES | AC50 |
| --- | --- |
| COc1ccc(O)c(C(=O)c2cnc3nc4ccccc4n3c2)c1 | 6.33 µM |
| Cc1cc(C)cc(OCC(O)CN2CCC(CN3C(=O)c4cccc5cccc(c45)C3=O)CC2)c1 (centres undefined) | 7.97 µM |
| CCCOc1ccc(Br)cc1CSC(=N)N | 8.01 µM |
| CCOc1cc(/C=N/Nc2cc(C)nc(-n3nc(C)cc3C)n2)ccc1O | 5.78 µM |
| O=[N+]([O-])c1ccc(O)c(/C=N/Nc2nc3ccccc3[nH]2)c1 | 2.01 µM |
| Cc1ccc(NC(=O)c2ccccc2NS(=O)(=O)c2ccc(Cl)s2)cc1 | 5.78 µM |
| CC(=O)c1sc(NC(=O)C2(F)C(F)(F)C(F)(F)C(F)(F)C(F)(F)C2(F)F)nc1C | 4.17 µM |
| Cn1ncnc2c(=O)n(C)c(=O)nc1-2 | 1.48 µM |
| O=S(=O)(c1ccc2nc(Nc3ccccc3)ccc2c1)N1CCCCC1 | 22.4 µM |
| COC(/C(=N/O)c1ccc(Cl)cc1)c1ccccc1 (centres undefined) | 2.66 µM |
| N#Cc1ccc(C(=O)Nc2nc(-c3cccs3)c(C(=O)C(F)(F)F)s2)cc1 | 4.37 µM |
| Cc1[nH]n(-c2ccccc2)c(=O)c1/C=N\NC(=O)C1COc2ccccc2O1 (centres undefined) | 14 µM |
| COc1cc(NC(=O)c2ccccc2NS(=O)(=O)c2ccc(Cl)s2)cc(OC)c1 | 6.97 µM |
| COC(=O)c1sc(-c2ccc(C(C)(C)C)cc2)cc1NC(=O)/C=C/C(=O)O | 13.8 µM |
| COc1cc2c(cc1OC)-c1c(OC)c(OC)c(OC)c3ccnc(c13)C2=O | 6.65 µM |
| O=[N+]([O-])c1ccc(/C=N/n2c(CO)nc3ccccc32)s1 | 10.8 µM |
| Cc1c(C(C)C)c(=O)n(-c2ccc(S(=O)(=O)NCc3ccccc3)cc2)n1C | 3.71 µM |
| COC(=O)[C@H](Cc1ccccc1)N(Cc1ccccc1)S(=O)(=O)N(Cc1ccccc1)[C@@H](Cc1ccccc1)C(=O)OC | 4.38 µM |
| O=C(Nc1ccc(OC(F)F)c(Cl)c1)C(c1ccccc1)c1ccccc1 | 13 µM |
| O=C(NCc1cccnc1)/C(=C\c1ccc(-c2ccc(Br)cc2)o1)S(=O)(=O)c1ccccc1 | 4.27 µM |
| O=C(N/N=C/c1cc(Cl)ccc1O)c1ccccc1Br | 8.9 µM |
| O=S(=O)(Nc1nc2ccccc2nc1Nc1ccc(N2CCOCC2)cc1)c1cc(Cl)ccc1Cl | 6.63 µM |
| CCCCSc1nc2sc3c(c2c(=O)n1-c1ccc(C)cc1)CCN(C)C3 | 22.4 µM |
| Cc1cc(N2CCC(C)CC2)nc(NCc2ccccc2)n1 | 12.3 µM |
| CCOc1ccc(-c2csc(/C(C#N)=C\c3ccc(O)c([N+](=O)[O-])c3)n2)cc1 | 4.57 µM |
| O=C(CNC(=O)c1ccccc1O)N/N=C/c1cc(Br)ccc1OC(=O)/C=C/c1ccco1 | 10.7 µM |
| CCCCOc1ccc(-c2cc(C(=O)NNC(=S)NCC)c3ccccc3n2)cc1 | 6.66 µM |

| SMILES | AC50 |
| --- | --- |
| CC(=O)c1cn(CCOc2cc(C)ccc2C)c2ccccc12 | 4.67 µM |
| CC(C)C[C@H]1CN=C(Nc2ccccc2)N1CCc1ccc(F)cc1 | > 26 µM (inactive) |
| Oc1ccc(Nc2nc(-c3ccc4ccccc4c3)cs2)cc1 | 7.98 µM |
| FC(F)Sc1ccc(N=C2NN=C(c3ccc4c(c3)OCCO4)CS2)cc1 | 2.9 µM |
| Cc1cc(Cl)c(S(=O)(=O)N2CCN(c3ccc(F)cc3)CC2)cc1OCC(=O)NC1CCCCC1 | 7.07 µM |
| Oc1ccc(Br)cc1CNc1cccc2cccnc12 | 12.8 µM |
| Oc1ccc(-c2n[nH]c(C(F)(F)F)c2-c2ccccc2)c(O)c1 | 5.86 µM |
| Cn1nccc1C(=O)N/N=C/c1c(O)ccc2ccccc12 | 3.54 µM |
| CCOc1ccc(S(=O)(=O)N(C)c2ccc(OCC(=O)Nc3nc4ccccc4s3)cc2)cc1 | 7.9 µM |
| CCCCC1(Cc2ccc([N+](=O)[O-])cc2)C(=O)N(c2ccccc2)N(c2ccccc2)C1=O | 3.72 µM |
| N#CC(c1ccc(Cl)cc1)c1ccc2c(C(F)(F)F)cc(C(F)(F)F)nc2n1 (centres undefined) | 0.898 µM |
| Cc1cc([N+](=O)[O-])c2ccccc2[n+]1[O-] | 0.454 µM |
| O=C(Nc1nc(-c2ccccn2)cs1)c1ccc([N+](=O)[O-])o1 | 6.03 µM |
| CCCCNC(=O)c1ccc(Cn2c(=S)[nH]c3c([nH]c4ccc(OC)cc43)c2=O)cc1 | 6.92 µM |
| CN1/C(=C\C(=O)CN2C(=O)NC3(CCCCCC3)C2=O)C(C)(C)c2ccccc21 | 7.99 µM |
| CCN(CC)CCNc1ncnc2c1sc1nc(N3CCOCC3)c3c(c12)CC(C)(C)SC3 | 14.2 µM |
| O=C(Nc1cc(Sc2ccccn2)cc([N+](=O)[O-])c1)c1cccc(F)c1 | 8.51 µM |
| C=CCn1c(C)c(/C=C/c2cc[n+](C)cc2)c2ccccc21 | 5.99 µM |
| Oc1c(CN2CCN(c3ccc(F)cc3)CC2)cc(Cl)c2cccnc12 | 4.27 µM |
| O=C(N/N=C\c1c(O)ccc2ccccc12)c1ccc(Cn2cccn2)o1 | 4.39 µM |
| S=C(NCCCN1CCOCC1)N1CCN(c2nc(-c3ccc(Cl)cc3)cs2)CC1 | 12.9 µM |
| O=C(Nc1cccc(NC(=O)c2ccccc2Cl)c1)c1ccc([N+](=O)[O-])o1 | 7.58 µM |
| C[n+]1c2n(c3ccccc31)N=C(c1cc(C(C)(C)C)c(O)c(C(C)(C)C)c1)CS2 | 0.39 µM |
| CN1/C(=C\C(=O)c2ccco2)C(C)(C)c2ccccc21 | 7.58 µM |
| O=C(NCc1cccnc1)/C(=C\c1ccc(-c2ccc(Cl)c(Cl)c2)o1)S(=O)(=O)c1ccccc1 | 4.62 µM |
| COc1ccc(-n2c(-c3ccc(Cl)cc3)c[n+]3c2CCc2ccccc2-3)cc1 | 1.78 µM |
| CCOC(=O)CC1CCCCN1C(=O)c1cc(COc2cccc3cnccc23)on1 (centres undefined) | 8.19 µM |
